# Tested on: HCV replicon
# Type: cell-based, hepatitis C virus
# Conditions: HCV replicon cells, two days with compound, replicon RNA corrected by GAPDH; read-out: HCV replicon inhibitory activity: EC50
# Experimental: The inhibitory activity against the replication of HCV replicon was evaluated by determining the amount of replicon RNA, purified from cell lysate with a conventional column method, using real-time RT-PCR based on Taq-Man chemistry. The assay was carried out with the modified method reported by Lohmann et al., Science 285: 100 (1999) and Takeuchi et al., Gastroenterology 116: 636-642 (1999). The details thereof are described in the following.
# 7.5×10^3 HCV replicon cells in 0.1 ml of D-MEM medium containing 5% fetal bovine serum and 300 μg/ml of G418 (Kishine et al., B.B.R.C. 293: 993-999 (2002)) were seeded in each well of a 96-well microtiter plate (Corning Inc.). After the plate was incubated at 37° C. for 16 hours in 5% CO2, the medium was replaced with the above-mentioned medium in which the test compound was dissolved. […]
# RT-PCR was carried out by using the ABI PRISM 7900HT sequence detection system (Applied Biosystems Inc.), and the gene copy number of the HCV replicon RNA in each cell was determined. […]
# As a further control for RNA recovery in each assay well, the copy number of cellular Glyceraldehyde-3-phosphate dehydrogenase (GAPDH) mRNA was quantified by real-time RT-PCR with specific primer set and probe (all of these were produced by Takara Shuzo Co., Ltd.) as described above (part3) […]
smiles,measurement,value
C/C=C/C[C@@H](C)[C@@H](O)[C@H]1C(=O)N[C@@H]([C@@H](C)O)C(=O)N(C)CC(=O)N(C)[C@@H](CC(C)C)C(=O)N[C@@H](CC(C)C)C(=O)N(C)[C@@H](CC(C)C)C(=O)N[C@@H](C)C(=O)N[C@H](C)C(=O)N(C)[C@@H](C[C@H](C)CO)C(=O)N[C@@H](CC(C)C)C(=O)N(C)[C@@H](C(C)C)C(=O)N1C [(2)],EC50,< 3000 nM

# Reference: patent publication US7696167B2, “Cyclic peptide compound” (Astellas Pharma Inc., priority 2004, dated 2010)
